The nature of series [1]: Determination of relaxivity (T1, T2) at 4.7 Tesla. It counts as physicochemical. As to conditions: 4.7T MRI experimental scanner. The method, then: Solutions of PG-Benz-DTPA-Gd-IR783 were prepared in water at gadolinium concentrations of 0.005, 0.01, 0.02, 0.04, 0.08, and 0.16 mM. Spin lattice (T1) and spin-spin (T2) relaxivities were measured at 4.7 Tesla on 4.7T Bruker Biospec 47/40USR […] using inversion recovery and mutiecho T2-weight pulse sequences. Relaxivities (R1 or R2 in mM^−1s^−1) were obtained from linear least square determination of the slopes of 1/T1 vs [Gd] or 1/T2 vs [Gd] plots.
Solutions of PG-DTPA-Gd-NIR813 were prepared in water at gadolinium concentrations of 0.005, 0.01, 0.02, 0.04, 0.08, and 0.16 mM. Spin lattice (T1) and spin-spin (T2) relaxivities were measured at 4.7 Tesla on 4.7T Bruker Biospec (Bruker Biospin Corp., Billerica, Mass.) using inversion recovery and mutiecho T2-weight pulse sequences. Relaxivities (R1 or R2 in mM^−1s^−1) were obtained from linear least square determination of the slopes of 1/T1 vs [Gd] or 1/T2 vs [Gd] plots.

A short description of series [2]: Fluorescence emission spectra. It counts as physicochemical. As to conditions: methanol solution; for emission wavelength (maximum): excited at 766 nm. The method, then:
Analytical high-performance liquid chromatography (HPLC) was carried out on an Agilent 1100 system (Wilmington, Del.) equipped with a Vydac peptide and protein analytic C-18 column (Anaheim, Calif.). Sample was eluted with water and acetonitrile containing 0.1% TFA varying from 10% to 80% over 30 min. Fluorescence intensity was measured by Spex Fluorolog spectrofluorimeter (Jobin Yvon Inc, Edison, N.J.).
The fluorescence emission spectra of the synthesized contrast agent was obtained using a Spex Fluorolog spectrofluorimeter (Horiba Yvon Jobin, N.J.).

In a further series the target is T1, cathepsin B (Homo sapiens, UniProt P07858).
T1 construct: purchased Sigma-Aldrich (St. Louis, Mo.)
Description: Inhibition of biodegradation of L-PG-NIR813 in presence of CB inhibitor II. It counts as biochemical. As to conditions: 0.2 unit/mL cathepsin B, 10 μM eq. NIR813. The method, then: L-PG-NIR813 with different loading 8.3% and 10%, CB and CB inhibitor II were dissolved in assay buffer respectively. The reaction mixture (100 μL) in each well was composed of 10 μM L-PG-NIR813 probe and 0.2 units/mL CB. The CB inhibitor II was serially diluted in the assay buffer to obtain concentrations ranging from 240 μM to 77 nM. The microwell assay plate was incubated at 37° C. for 24 hr. At predetermined time intervals, the inhibition of biodegradation was examined using Li-Cor Odyssey imager.

Each structure is given as a SMILES string. Where a SMILES comes first, the peptide text is derived from it.

This note sets out measurements from patent publication US20100290997A1, “Imaging Agents and Methods” (priority 2006, published 2010).

As to `O=C([O-])CN(CCN(CC(=O)[O-])CC(=O)O)CCN(CC(=O)[O-])CC(=O)O.[Gd+3]` [DTPA-Gd], the “T1 relaxivity (r1)” value in series [1] was 4.8 mmol⁻¹ s⁻¹.

On to `CC1(C)C(=CC=C2CCCC(C=CC3=[N+](CCCCS(=O)(=O)[O-])c4ccccc4C3(C)C)=C2Cl)N(CCCCS(=O)(=O)[O-])c2ccccc21.[Na+]` [IR783], for which, in series [2], the Stokes shift was 32 nm, the excitation wavelength is 766 nm and the “emission wavelength (maximum)” value worked out at 798 nm.

`CC1(C)C(/C=C/C2=C(Sc3ccc(C(=O)NCCCCCN)cc3)C(=C/C=C3/N(CCCCS(=O)(=O)O)c4ccccc4C3(C)C)/CCC2)=[N+](CCCCS(=O)(=O)O)c2ccccc21` [NIR813, IR-783-S-Ph-CONH(CH2)5NH2]: in series [2], the Stokes shift came out at 47 nm, the excitation wavelength amounted to 766 nm and the “emission wavelength (maximum)” value stood at 813 nm.

With `CC(=O)N[C@@H](CC(C)C)C(=O)N[C@H](C(=O)N[C@H](C=O)CCCCN)C(C)C` [CB inhibitor, Ac-LVK-CHO] (Ac-Leu-Val-Lys-aldehyde), the “inhibition of PG-NIR813 degradation by CB” value at cathepsin B is given as “inhibited by CB inhibitor in a dose-dependent manner”.
